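The compound was tested at five concentrations on cells cultured in 96-well plates, with a 48-hour exposure period. GI50 is the concentration that inhibits growth by half. The concentration for full growth arrest is given as TGI.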
How the values were obtained:
Assay in all cases: NCI anticancer screen, dose series, 48 h
NCI-H23 lung = system: NCI-H23 lung
U251 CNS = system: U251 CNS
HL-60(TB) leukemia = system: HL-60(TB) leukemia
HOP-92 NSCLC = system: HOP-92 NSCLC
OVCAR-3 ovarian = system: OVCAR-3 ovarian
SN12C renal = system: SN12C renal
DU-145 prostate = system: DU-145 prostate
KM12 colon = system: KM12 colon
TK-10 renal = system: TK-10 renal
RXF 393 renal = system: RXF 393 renal

SMILES	GI50 (NCI-H23 lung) [µM]	TGI (NCI-H23 lung) [µM]	GI50 (U251 CNS) [µM]	TGI (U251 CNS) [µM]	GI50 (HL-60(TB) leukemia) [µM]	TGI (HL-60(TB) leukemia) [µM]	GI50 (HOP-92 NSCLC) [µM]	TGI (HOP-92 NSCLC) [µM]	GI50 (OVCAR-3 ovarian) [µM]	TGI (OVCAR-3 ovarian) [µM]	GI50 (SN12C renal) [µM]	TGI (SN12C renal) [µM]	GI50 (DU-145 prostate) [µM]	TGI (DU-145 prostate) [µM]	GI50 (KM12 colon) [µM]	TGI (KM12 colon) [µM]	GI50 (TK-10 renal) [µM]	TGI (TK-10 renal) [µM]	GI50 (RXF 393 renal) [µM]	TGI (RXF 393 renal) [µM]
N#C/C(=C\c1ccccn1)c1nc2ccccc2o1	33.9	> 100	21.5	49.8	15.3	76.2	0.0586	20.7	29.7	> 100	32.5	> 100	34.4	> 100	26.8	> 100	50.3	> 100	28.3	82.2
C(#Cc1ccccc1C#Cc1cnccn1)c1cnccn1	21.9	57.3	48	> 100	9.32	22.5	79.5	> 100	21.5	> 63.1	24.1	> 87.1	21.8	> 100	26.1	68.3	27.2	> 78.2	> 100	> 100
CCc1n(Cc2ccc3ccccc3c2)cc[n+]1Cc1ccc2ccccc2c1	0.396	2.02	0.578	2.2	0.249	1.17	0.338	1.77	0.466	1.74	0.572	2.12	0.965	4.23	0.549	1.89	1.65	3.32	1.15	2.63
Cc1ccc(S(=O)(=O)NC(=O)Nc2ncn[nH]2)cc1		> 100		> 100		> 100		> 100		> 100		> 100		> 100		> 100		> 100		> 100
Nc1ncnc2occ(-c3ccc(NC(=O)Nc4cccc(C(F)(F)F)c4)cc3)c12	4.1	13.3	5.27	16.5	5.1	14.2	3.43	10.1	4.79	9.72	2.01	18	4.82	16.1	0.123	4.51	2.9	11.8	1.71	5.39
O=C(/C=C/c1cccc(Cl)c1)c1ccccc1	14.8	29.6	2.67	7.89	2.96	6.58	16.3	32.8	4.09	15.4	14.6	28.3	11.7	24.2	1.96	4.86			12.2	24.8
CN(C)Cc1nsc(N(C)C)n1		> 100		> 100				> 100		> 100		> 100		> 100		> 100		> 100		> 100
Nc1ccccc1SC(CC(=O)c1ccccc1)c1c(Cl)cccc1Cl (stereo unspecified)			4.24	15.3	3.36	11.7	6.11	21.5	3.4	12	2.94	11.5	5.8	18.3	2.26	5.4	4.71	13.3	4.23	17.4
COc1ccc(/C(=N/O)c2cc(F)c(F)c(OC)c2F)cc1O	1.9	> 100	0.634	> 100			18.9	> 100	0.345	16.5	0.832	> 100	1.88	> 100	0.396	> 100	17.9	> 100		
O=C1c2c[n+](Cc3ccccc3)ccc2-c2nc3ccccc3c3ccnc1c23	0.158	1.26	0.541	1.64	0.72	1.93	0.548	1.9	0.379	1.87			0.417	0.891	1.06	4.28	0.818	2.8	0.534	1.56
O=C(N/N=C/c1coc2ccc(Cl)cc2c1=O)c1cc(O)c(O)c(O)c1	16.2	48.1	22.2	57.2			31.9	> 100	40.4	> 100	24.1	65.4	30.7	> 100	21.5	69.1			34.9	> 100
COc1cc2c(cc1OCCCN1CCN(CCCOc3cc4c(cc3OC)C(=O)N3C[C@H](F)C[C@H]3C=N4)CC1)N=C[C@@H]1C[C@@H](F)CN1C2=O	0.0255	0.209			< 0.045	0.797	0.064	14.6	0.119	2.91	0.0139	12.2	0.083	6.16	0.18		0.309	3.28		
Cc1ccc(-c2csc3ncnc(Nc4cccc(O)c4)c23)cc1	22.6	46.5	22.5	58.6	18.2	51.5	14.3	35.9	22.3	50.4	34.1	> 100	42.1	> 100	25.7	69			48.2	81.2
O=C(NCCc1nccs1)c1cnc2c(S)cccc2c1	3.91	> 100	2.53	16.7	10.7	70	19.8	40.8	2.47	9.21			3.27	13.7	2.88	17.8	5.8	19.5	3.07	9.29
